Test results reported in patent publication US10251395B2, “Substituted furano-/thienocycloalkylamino-2-pyrimidine derivatives and use thereof for controlling undesired plant growth” (Bayer CropScience Aktiengesellschaft, priority 2015, dated 2019).

Experiments:
Assay type in all cases: in vivo
Echinochloa crus-galli [1] = test: Post-emergence herbicidal effect; settings: 320 g/ha, assessed visually after about 3 weeks vs untreated controls
Text: (§1) • ABUTH: Abutilon theophrasti ALOMY: Alopecurus myosuroides • AMARE: Amaranthus retroflexus AVEFA: Avena fatua • CYPES: Cyperus esculentus ECHCG: Echinochloa crus-galli • LOLMU: Lolium multiflorum MATIN: Matricaria inodora • PHBPU: Ipomoea purpurea POLCO: Polygonum convolvulus • SETVI: Setaria viridis STEME: Stellaria media • VERPE: Veronica persica VIOTR: Viola tricolor Seeds of monocotyledonous and dicotyledonous weed and crop plants are laid out in sandy loam in wood-fiber pots, covered with soil and cultivated in a greenhouse under good growth conditions. 2 to 3 weeks after sowing, the test plants are treated at the one-leaf stage. The compounds of the invention, formulated in the form of wettable powders (WP) or as emulsion concentrates (EC), are then sprayed onto the green parts of the plants as aqueous suspension or emulsion at a water application rate equating to 600 to 800 L/ha with addition of 0.2% wetting agent. After the test plants have been left to stand in the greenhouse under optimal growth conditions for about 3 weeks, the action of the preparations is assessed visually in comparison to untreated controls (herbicidal action in percent (%): 100% activity=the plants have died, 0% activity=like control plants).

Veronica persica [2] = test: Post-emergence herbicidal effect; settings: assessed visually after about 3 weeks vs untreated controls
Text: as §1

Setaria viridis [3] = test: Post-emergence herbicidal effect; settings: assessed visually after about 3 weeks vs untreated controls
Text: as §1

Ipomoea purpurea = test: Post-emergence herbicidal effect; settings: 320 g/ha, assessed visually after about 3 weeks vs untreated controls
Text: as §1

Stellaria media [4] = test: Post-emergence herbicidal effect; settings: assessed visually after about 3 weeks vs untreated controls
Text: as §1

Amaranthus retroflexus [5] = test: Post-emergence herbicidal effect; settings: assessed visually after about 3 weeks vs untreated controls
Text: as §1

Viola tricolor [6] = test: Post-emergence herbicidal effect; settings: assessed visually after about 3 weeks vs untreated controls
Text: as §1

Echinochloa crus-galli [7] = test: Pre-emergence herbicidal effect; settings: scored visually after 3 weeks
Text: (§2) Seeds of monocotyledonous and dicotyledonous weed plants and crop plants are laid out in wood-fiber pots in sandy loam and covered with soil. The compounds of the invention, formulated in the form of wettable powders (WP) or as emulsion concentrates (EC), are then applied to the surface of the covering soil as aqueous suspension or emulsion at a water application rate equating to 600 to 800 L/ha with addition of 0.2% wetting agent.
(§3) After the treatment, the pots are placed in a greenhouse and kept under good growth conditions for the trial plants. The damage to the test plants is scored visually after a test period of 3 weeks by comparison with untreated controls (herbicidal activity in percent (%): 100% activity=the plants have died, 0% activity=like control plants).
(§4) • ABUTH: Abutilon theophrasti ALOMY: Alopecurus myosuroides • AMARE: Amaranthus retroflexus AVEFA: Avena fatua • CYPES: Cyperus esculentus ECHCG: Echinochloa crus-galli • LOLMU: Lolium multiflorum MATIN: Matricaria inodora • PHBPU: Ipomoea purpurea POLCO: Polygonum convolvulus • SETVI: Setaria viridis STEME: Stellaria media • VERPE: Veronica persica VIOTR: Viola tricolor

Veronica persica [8] = test: Pre-emergence herbicidal effect; settings: scored visually after 3 weeks
Text: as §2, §3, §4

Setaria viridis [9] = test: Pre-emergence herbicidal effect; settings: scored visually after 3 weeks
Text: as §2, §3, §4

Stellaria media [10] = test: Pre-emergence herbicidal effect; settings: scored visually after 3 weeks
Text: as §2, §3, §4

Amaranthus retroflexus [11] = test: Pre-emergence herbicidal effect; settings: scored visually after 3 weeks
Text: as §2, §3, §4

Alopecurus myosuroides = test: Pre-emergence herbicidal effect; settings: scored visually after 3 weeks
Text: as §2, §3, §4

Matricaria inodora = test: Pre-emergence herbicidal effect; settings: scored visually after 3 weeks
Text: as §2, §3, §4

Viola tricolor [12] = test: Pre-emergence herbicidal effect; settings: scored visually after 3 weeks
Text: as §2, §3, §4

Polygonum convolvulus = test: Pre-emergence herbicidal effect; settings: Dosage 320 g/ha, scored visually after 3 weeks
Text: as §2, §3, §4

Lolium multiflorum = test: Pre-emergence herbicidal effect; settings: Dosage 320 g/ha, scored visually after 3 weeks
Text: as §2, §3, §4

Nc1nc(NC2CCc3cc(Cl)sc32)ncc1C(F)(F)F (racemic) [compound 48]
post-emergence efficacy ECHCG (Echinochloa crus-galli [1]): 100% | post-emergence efficacy VERPE (Veronica persica [2]; 320 g/ha): 80% | post-emergence efficacy SETVI (Setaria viridis [3]; 80 g/ha): 80% | post-emergence efficacy SETVI (Setaria viridis [3]; 320 g/ha): 90% | post-emergence efficacy PHBPU (Ipomoea purpurea): 80% | post-emergence efficacy STEME (Stellaria media [4]; 320 g/ha): 90% | post-emergence efficacy AMARE (Amaranthus retroflexus [5]; 80 g/ha): 80% | post-emergence efficacy AMARE (Amaranthus retroflexus [5]; 320 g/ha): 90% | post-emergence efficacy VIOTR (Viola tricolor [6]; 80 g/ha): 80% | post-emergence efficacy VIOTR (Viola tricolor [6]; 320 g/ha): 90% | ECHCG pre-emergence efficacy (herbicidal activity) (Echinochloa crus-galli [7]; Dosage 80 g/ha): 100% | ECHCG pre-emergence efficacy (herbicidal activity) (Echinochloa crus-galli [7]; Dosage 320 g/ha): 100% | VERPE pre-emergence efficacy (herbicidal activity) (Veronica persica [8]; Dosage 80 g/ha): 100% | VERPE pre-emergence efficacy (herbicidal activity) (Veronica persica [8]; Dosage 320 g/ha): 100% | SETVI pre-emergence efficacy (herbicidal activity) (Setaria viridis [9]; Dosage 320 g/ha): 80% | STEME pre-emergence efficacy (herbicidal activity) (Stellaria media [10]; Dosage 320 g/ha): 100% | AMARE pre-emergence efficacy (herbicidal activity) (Amaranthus retroflexus [11]; Dosage 320 g/ha): 100% | ALOMY pre-emergence efficacy (herbicidal activity) (Alopecurus myosuroides; Dosage 320 g/ha): 80% | MATIN pre-emergence efficacy (herbicidal activity) (Matricaria inodora; Dosage 80 g/ha): 80% | MATIN pre-emergence efficacy (herbicidal activity) (Matricaria inodora; Dosage 320 g/ha): 90% | VIOTR pre-emergence efficacy (herbicidal activity) (Viola tricolor [12]; Dosage 80 g/ha): 100% | VIOTR pre-emergence efficacy (herbicidal activity) (Viola tricolor [12]; Dosage 320 g/ha): 100%

CS(=O)(=O)c1cnc(NC2CCc3cc(Cl)sc32)nc1N (racemic) [compound 50]
post-emergence efficacy VERPE (Veronica persica [2]; 80 g/ha): 80% | post-emergence efficacy VERPE (Veronica persica [2]; 320 g/ha): 90% | post-emergence efficacy STEME (Stellaria media [4]; 320 g/ha): 100% | post-emergence efficacy AMARE (Amaranthus retroflexus [5]; 80 g/ha): 80% | post-emergence efficacy AMARE (Amaranthus retroflexus [5]; 320 g/ha): 90% | post-emergence efficacy VIOTR (Viola tricolor [6]; 80 g/ha): 90% | post-emergence efficacy VIOTR (Viola tricolor [6]; 320 g/ha): 100% | ECHCG pre-emergence efficacy (herbicidal activity) (Echinochloa crus-galli [7]; Dosage 80 g/ha): 90% | ECHCG pre-emergence efficacy (herbicidal activity) (Echinochloa crus-galli [7]; Dosage 320 g/ha): 100% | VERPE pre-emergence efficacy (herbicidal activity) (Veronica persica [8]; Dosage 80 g/ha): 100% | VERPE pre-emergence efficacy (herbicidal activity) (Veronica persica [8]; Dosage 320 g/ha): 100% | SETVI pre-emergence efficacy (herbicidal activity) (Setaria viridis [9]; Dosage 320 g/ha): 100% | STEME pre-emergence efficacy (herbicidal activity) (Stellaria media [10]; Dosage 80 g/ha): 100% | STEME pre-emergence efficacy (herbicidal activity) (Stellaria media [10]; Dosage 320 g/ha): 100% | POLCO pre-emergence efficacy (herbicidal activity) (Polygonum convolvulus): 100% | LOLMU pre-emergence efficacy (herbicidal activity) (Lolium multiflorum): 80% | AMARE pre-emergence efficacy (herbicidal activity) (Amaranthus retroflexus [11]; Dosage 80 g/ha): 100% | AMARE pre-emergence efficacy (herbicidal activity) (Amaranthus retroflexus [11]; Dosage 320 g/ha): 100% | MATIN pre-emergence efficacy (herbicidal activity) (Matricaria inodora; Dosage 80 g/ha): 90% | MATIN pre-emergence efficacy (herbicidal activity) (Matricaria inodora; Dosage 320 g/ha): 90% | VIOTR pre-emergence efficacy (herbicidal activity) (Viola tricolor [12]; Dosage 80 g/ha): 80% | VIOTR pre-emergence efficacy (herbicidal activity) (Viola tricolor [12]; Dosage 320 g/ha): 100%

CC(=O)c1c(N)nc(NC2CCCc3sc(C)cc32)nc1C(F)(F)F (racemic) [compound 268]
post-emergence efficacy VERPE (Veronica persica [2]; 80 g/ha): 80% | post-emergence efficacy VERPE (Veronica persica [2]; 320 g/ha): 80% | post-emergence efficacy SETVI (Setaria viridis [3]; 320 g/ha): 80% | post-emergence efficacy STEME (Stellaria media [4]; 80 g/ha): 100% | post-emergence efficacy STEME (Stellaria media [4]; 320 g/ha): 100% | post-emergence efficacy VIOTR (Viola tricolor [6]; 80 g/ha): 80% | post-emergence efficacy VIOTR (Viola tricolor [6]; 320 g/ha): 80% | VERPE pre-emergence efficacy (herbicidal activity) (Veronica persica [8]; Dosage 80 g/ha): 100% | VERPE pre-emergence efficacy (herbicidal activity) (Veronica persica [8]; Dosage 320 g/ha): 100% | SETVI pre-emergence efficacy (herbicidal activity) (Setaria viridis [9]; Dosage 80 g/ha): 90% | SETVI pre-emergence efficacy (herbicidal activity) (Setaria viridis [9]; Dosage 320 g/ha): 90% | STEME pre-emergence efficacy (herbicidal activity) (Stellaria media [10]; Dosage 80 g/ha): 90% | STEME pre-emergence efficacy (herbicidal activity) (Stellaria media [10]; Dosage 320 g/ha): 100% | AMARE pre-emergence efficacy (herbicidal activity) (Amaranthus retroflexus [11]; Dosage 80 g/ha): 100% | AMARE pre-emergence efficacy (herbicidal activity) (Amaranthus retroflexus [11]; Dosage 320 g/ha): 100% | ALOMY pre-emergence efficacy (herbicidal activity) (Alopecurus myosuroides; Dosage 80 g/ha): 80% | ALOMY pre-emergence efficacy (herbicidal activity) (Alopecurus myosuroides; Dosage 320 g/ha): 90% | MATIN pre-emergence efficacy (herbicidal activity) (Matricaria inodora; Dosage 320 g/ha): 90% | VIOTR pre-emergence efficacy (herbicidal activity) (Viola tricolor [12]; Dosage 80 g/ha): 80% | VIOTR pre-emergence efficacy (herbicidal activity) (Viola tricolor [12]; Dosage 320 g/ha): 90%
